These compounds were tested on retinal pigment epithelium (RPE) cells (assay: Circadian patterns of VEGF secretion by perfused RPE monolayers (ELISA, Cosinor fit)). Details: alternating 12-hour intervals, conclusion in words.
Assay type: cell-based
Protocol: The purpose of this study was to test whether retinal pigment epithelium (RPE) cells express vascular endothelial growth factor (VEGF) in a circadian manner. We tested the hypothesis that 12 hour alternating intervals of dopamine then melatonin combined with L-DOPA would induce RPE cells into a circadian rhythm that controlled VEGF expression. Methods: RPE monolayers were produced on snap-well filters, which were maintained in static culture conditions for at least six months, during which time they became pigmented and well differentiated. […] A baseline of VEGF secretion was established over a 3-week period. After the baseline was established, the cells were perfused with media containing 1 ? M dopamine for 12 hours, then media containing 1 ? M melatonin plus 1 ? M L-DOPA for the next 12 hours. […] Initiation of the next drug dilutes the previous over 12 hours while simultaneously ramping up the new drug. Cells were maintained in this circadian rhythm for at least three cycles. […] The amount of VEGF was plotted against the time of perfusion and fitted using the Cosinor method to find a length of circadian cycle and corresponding p-value for statistical analysis.
For `COc1ccc2[nH]cc(CCNC(C)=O)c2c1` [melatonin, Melatonin], the “effect on RPE VEGF secretion” value was “antagonize dopamine effects”.
In the case of `N[C@@H](Cc1ccc(O)c(O)c1)C(=O)O` [L-DOPA, 2-amino-3-(3,4-dihydroxyphenyl)propanoic acid], the “effect on RPE VEGF secretion” value is reported as “antagonize dopamine effects”.
With `NCCc1ccc(O)c(O)c1` [dopamine] the “effect on RPE VEGF secretion” value was “increase RPE VEGF secretion”.

— patent US11969401B2, “Compositions and methods for treating or limiting development of age-related macular degeneration” (Arizona Board of Regents on Behalf of The University of …, priority 2019, dated 2024)
